Experimental data reported in patent US8575145B2, “Triazolopyridine compounds as PIM kinase inhibitors” (Array BioPharma Inc., priority 2008, dated 2013).
Where a name gives a salt, the structure may show the parent alone. Read-outs that look alike come from different tables or passages of the source.

Key:
[1] = biological target: GST-tagged recombinant full-length human PIM-2 (Homo sapiens (Human), UniProt Q9P1W9); experiment: PIM-2 Enzyme Assay; conditions: read-out: PIM-2 IC50
[2] = biological target: recombinant rat PIM-3 (Rattus norvegicus (Rat), UniProt O70444); experiment: PIM-3 Enzyme Assay; conditions: read-out: PIM-3 IC50; 30 μM ATP, 0.5 nM PIM-3
[3] = biological target: PIM-1 (Homo sapiens (Human), UniProt P11309); experiment: PIM-1 Enzyme Assay; format: biochemical
PIM-1, sequence (P11309 whole entry, species assumed): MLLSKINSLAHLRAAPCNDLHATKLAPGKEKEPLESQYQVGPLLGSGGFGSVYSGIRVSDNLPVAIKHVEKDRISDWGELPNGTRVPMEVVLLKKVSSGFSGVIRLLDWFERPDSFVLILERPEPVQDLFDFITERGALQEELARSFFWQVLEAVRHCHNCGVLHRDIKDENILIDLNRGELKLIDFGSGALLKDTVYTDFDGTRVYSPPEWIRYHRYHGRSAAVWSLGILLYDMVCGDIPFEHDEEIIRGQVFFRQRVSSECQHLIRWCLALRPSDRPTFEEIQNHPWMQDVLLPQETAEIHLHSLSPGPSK
Procedure: The amount of radiolabeled product is then measured by liquid scintillation counting. The final buffer conditions were as follows: 20 mM K^+MOPS, pH 7.4, 10 mM MgCl2, 0.005% Tween-20, 1 mM DTT. […] Incubations were carried out for 60 min at 22° C. and quenched with 75 μL of 200 mM H3PO4, filtered through a Whatman P81 plate and washed (1×200 μL and 5×100 μL ) with 200 mM H3PO4. Liquid scintillation cocktail (50 μL ) was then added per well, and the plate was counted for 30 s/well using a TopCount NXT.
One-μL aliquots of these were then transferred to the assay mixtures above to give a final concentration of DMSO of 2%. […] For each plate, percent of control (POC) values were calculated for each well. IC50's were estimated from the POC's using a standard 4-parameter logistic model. The IC50 is defined as the concentration of inhibitor at which the POC equals 50 for the fitted curve.

[4] = 4 μM ATP, […] PIM-2, dihydrochloride

GST-tagged recombinant full-length human PIM-2, sequence (Q9P1W9 whole entry): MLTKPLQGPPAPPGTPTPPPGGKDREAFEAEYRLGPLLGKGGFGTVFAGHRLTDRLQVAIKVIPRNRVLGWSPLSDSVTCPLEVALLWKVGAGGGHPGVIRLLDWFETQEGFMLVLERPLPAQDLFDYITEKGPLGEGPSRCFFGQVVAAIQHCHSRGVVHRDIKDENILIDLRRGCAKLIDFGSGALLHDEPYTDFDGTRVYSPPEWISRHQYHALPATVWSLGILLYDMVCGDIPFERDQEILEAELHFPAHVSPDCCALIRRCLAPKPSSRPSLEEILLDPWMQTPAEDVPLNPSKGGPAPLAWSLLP

| Structure (SMILES) | IC50 ([1]; 4 μM ATP, […] PIM-2) [nM] | IC50 ([3]; 35 μM ATP, 0.25 nM PIM-1) [nM] | other results |
| --- | --- | --- | --- |
| FCCN1CCC(F)(COc2cccc3ccc(-c4nnc5ccccn45)nc23)CC1 [Example 105, 2-([1,2,4]triazolo[4,3-a]pyridin-3-yl)-8-((4-fluoro-1-(2-fluoroethyl)piperidin-4-yl)methoxy)quinoline dihydrochloride] | 409 | 8.7 |  |
| c1cc(OCC2(CC3CC3)CCNCC2)c2nc(-c3nnc4ccccn34)ccc2c1 [Example 69, 2-([1,2,4]triazolo[4,3-a]pyridin-3-yl)-8-44-(cyclopropylmethyl)piperidin-4-yl)methoxy)quinoline dihydrochloride] | 95 |  | IC50 [3]: 1.6 nM |
| COc1ccc2nnc(-c3ccc4cc(F)cc(OCC5(F)CCNCC5)c4n3)n2c1 [Example 110, 6-fluoro-8-((4-fluoropiperidin-4-yl)methoxy)-2-(6-methoxy-[1,2,4]triazolo[4,3-a]pyridin-3-yl)quinoline dihydrochloride] | 163 | 1.9 |  |
| F[C@@H]1CCNCC[C@H]1Oc1cccc2ccc(-c3nnc4ccc(C5CC5)cn34)nc12 (relative stereo) [Example 98, 2-(6-cyclopropyl-[1,2,4]triazolo[4,3-a]pyridin-3-yl)-8-((trans)-5-fluoroazepan-4-yloxy)quinoline dihydrochloride] | 661 | 0.7 |  |
| FC1CNCCC1Oc1cccc2ccc(-c3nnc4ccccn34)nc12 (single isomer, unassigned) [Example 94, 2-([1,2,4]triazolo[4,3-a]pyridin-3-yl)-8-((cis)-3-fluoropiperidin-4-yloxy)quinoline dihydrochloride] |  |  | IC50 ([3]; dihydrochloride): 19.4 nM; IC50 [1, 4]: 1000 nM |
| COC1(COc2cc(F)cc3ccc(-c4nnc5ccccn45)nc23)CCCN(CCO)CC1 (stereo not drawn) [Example 115, 2-(4-42-([1,2,4]triazolo[4,3-a]pyridin-3-yl)-6-fluoroquinolin-8-yloxy)methyl)-4-methoxyazepan-1-yl)ethanol dihydrochloride] | 222 | 1.4 |  |
| COC1(COc2cc(F)cc3ccc(-c4nnc5ccccn45)nc23)CCCNCC1 (stereo not drawn) [Example 114, 2-([1,2,4]triazolo[4,3-a]pyridin-3-yl)-6-fluoro-8-((4-methoxyazepan-4-yl)methoxy)quinoline bis-trifluoroacetate] | 86 | 0.7 |  |
| Fc1cc(OCC2(F)CNC2)c2nc(-c3nnc4ccccn34)ccc2c1 [Example 108, 2-([1,2,4]triazolo[4,3-a]pyridin-3-yl)-6-fluoro-8-((3-fluoroazetidin-3-yl)methoxy)quinoline Dihydrochloride] | 489 |  | IC50 [3]: 7.3 nM |
| Fc1ccc2nnc(-c3ccc4cccc(OCC5(F)CCNCC5)c4n3)n2c1 [Example 103, 2-(6-fluoro-[1,2,4]triazolo[4,3-a]pyridin-3-yl)-8-((4-fluoropiperidin-4-yl)methoxy)quinoline dihydrochloride] |  | 1.4 | IC50 [1]: 65.6 nM |
| Fc1ccc2nnc(-c3ccc4cccc(O[C@@H]5CCNCC[C@H]5F)c4n3)n2c1 (relative stereo) [Example 102, 2-(6-fluoro-[1,2,4]triazolo[4,3-a]pyridin-3-yl)-8-((trans)-5-fluoroazepan-4-yloxy)quinoline dihydrochloride] | 440 |  | IC50 [3]: 4.9 nM |
| FC1CNCCC1Oc1cccc2ccc(-c3nnc4ccccn34)nc12 (single isomer, unassigned) [Example 97, 2-([1,2,4]triazolo[4,3-a]pyridin-3-yl)-8-((trans)-3-fluoropiperidin-4-yloxy)quinoline dihydrochloride] |  |  | IC50 ([3]; dihydrochloride): 49 nM; IC50 [1, 4]: 1000 nM |
| CC(C)(CNCC(F)F)COc1cccc2ccc(-c3nnc4ccccn34)nc12 [Example 135, 3-(2-([1,2,4]triazolo[4,3-a]pyridin-3-yl)quinolin-8-yloxy)-N-(2,2-difluoroethyl)-2,2-dimethylpropan-1-amine hydrochloride] | 506 | 12.6 |  |
| CN1CCC(F)(COc2cccc3ccc(-c4nnc5ccccn45)nc23)CC1 [Example 84, 2-([1,2,4]triazolo[4,3-a]pyridin-3-yl)-8-((4-fluoro-1-methylpiperidin-4-yl)methoxy)quinoline dihydrochloride] | 73 |  | IC50 [3]: 2 nM |
| F[C@@H]1CNCC[C@@H]1Oc1cccc2ccc(-c3nnc4ccc(-c5ccccc5)cn34)nc12 (relative stereo) [Example 82, 8-((cis)-3-fluoropiperidin-4-yloxy)-2-(6-phenyl-[1,2,4]triazolo[4,3-a]pyridin-3-yl)quinoline dihydrochloride] | 1040 |  | IC50 [3]: 3 nM |
| FC1(COc2cccc3ccc(-c4nnc5ccc(Br)cn45)nc23)CCNCC1 [Example 77, 2-(6-bromo-[1,2,4]triazolo[4,3-a]pyridin-3-yl)-8-((4-fluoropiperidin-4-yl)methoxy)-quinoline dihydrochloride] |  | 17 | IC50 [1]: 1390 nM |
| FC1(COc2cccc3ccc(-c4nnc5ccc(-c6ccccc6)cn45)nc23)CCNCC1 [Example 81, 8-((4-fluoropiperidin-4-yl)methoxy)-2-(6-phenyl-[1,2,4]triazolo[4,3-a]pyridin-3-yl)quinoline dihydrochloride] | 142 |  | IC50 [3]: 0.45 nM |

Now from value to compound, other results behind:

| IC50 ([1]; 4 μM ATP, […] PIM-2) [nM] | IC50 ([3]; 35 μM ATP, 0.25 nM PIM-1) [nM] | Structure (SMILES) | other results |
| --- | --- | --- | --- |
| 143 |  | CNCC(C)(C)COc1cccc2ccc(-c3nnc4ccccn34)nc12 [Example 28, 3-(2-([1,2,4]triazolo[4,3-a]pyridin-3-yl)quinolin-8-yloxy)-N,2,2-trimethylpropan-1-amine] | IC50 [2]: 4 nM |
| 77 |  | CC(C)(CO)COc1cccc2ccc(-c3nnc4ccccn34)nc12 [Example 24, 3-(2-([1,2,4]triazolo[4,3-a]pyridin-3-yl)quinolin-8-yloxy)-2,2-dimethylpropan-1-ol] | IC50 [2]: 4 nM |
| 26 | 0.55 | CC(C)(CN)COc1cc(F)cc2ccc(-c3nnc4ccccn34)nc12 [Example 39, 3-(2-([1,2,4]triazolo[4,3-a]pyridin-3-yl)-6-fluoroquinolin-8-yloxy)-2,2-dimethylpropan-1-amine] |  |
| 156 | 0.9 | Cc1ccn2c(-c3ccc4cccc(OCC(C)(C)CN)c4n3)nnc2c1 [Example 123, 2,2-dimethyl-3-(2-(7-methyl-[1,2,4]triazolo[4,3-a]pyridin-3-yl)quinolin-8-yloxy)propan-1-amine trihydrochloride] |  |
| 506 | 4.4 | Fc1cc(OC2CCNCC2(F)F)c2nc(-c3nnc4ccccn34)ccc2c1 (stereo not drawn) [Example 93, 2-([1,2,4]triazolo[4,3-a]pyridin-3-yl)-8-(3,3-difluoropiperidin-4-yloxy)-6-fluoroquinoline dihydrochloride] |  |
| 1000 | 4.9 | NCC1(COc2cccc3ccc(-c4nnc5ccccn45)nc23)CCCC1 [Example 129, (1-((2-([1,2,4]triazolo[4,3-a]pyridin-3-yl)quinolin-8-yloxy)methyl)cyclopentyl)methanamine] |  |
| 330 | 3 | CN1CC[C@@H](F)[C@H](Oc2cccc3ccc(-c4nnc5ccccn45)nc23)CC1 (relative stereo) [Example 118, 2-([1,2,4]triazolo[4,3-a]pyridin-3-yl)-8-((trans)-5-fluoro-1-methylazepan-4-yloxy)quinoline] |  |
| 25.4 | 0.5 | Fc1cc(OCC2(F)CCNCC2)c2nc(-c3nnc4ccccn34)ccc2c1 [Example 106, 2-([1,2,4]triazolo[4,3-a]pyridin-3-yl)-6-fluoro-8-((4-fluoropiperidin-4-yl)methoxy)quinoline dihydrochloride] |  |
| 429 | 1 | COC1(COc2cccc3ccc(-c4nnc5cc(C)ccn45)nc23)CCNCC1 [Example 125, 8((4-methoxypiperidin-4-yl)methoxy)-2-(7-methyl-[1,2,4]triazolo[4,3-a]pyridin-3-yl)quinoline di-trifluoroacetate] |  |
| 1000 | 31 | F[C@@H]1CNCC[C@@H]1Oc1cccc2ccc(-c3nnc4cc(Cl)ccn34)nc12 [Example 124, 2-(7-chloro-[1,2,4]triazolo[4,3-a]pyridin-3-yl)-8-((3R,4S)-3-fluoropiperidin-4-yloxy)quinoline] |  |
| 1760 | 26 | Fc1ccn2c(-c3ccc4cccc(OC5CCNCC5F)c4n3)nnc2c1 (stereo not drawn) [Example 60, cis-2-(7-fluoro-[1,2,4]triazolo[4,3-a]pyridin-3-yl)-8-3-fluoropiperidin-4-yloxy)quinoline] |  |
| 1990 | 151 | c1cc(Oc2ccncc2)c2nc(-c3nnc4ccccn34)ccc2c1 [Example 74, 2-([1,2,4]triazolo[4,3-a]pyridin-3-yl)-8-(pyridin-4-yloxy)quinoline] |  |
| 10000 | 139 | CC(C)(CN)COc1ccc(F)c2ccc(-c3nnc4ccccn34)nc12 [Example 43, 3-(2-([1,2,4]triazolo[4,3-a]pyridin-3-yl)-5-fluoroquinolin-8-yloxy)-2,2-dimethylpropan-1-amine] |  |
| 588 | 5.3 | OC1(COc2cccc3ccc(-c4nnc5ccccn45)nc23)CCNCC1 [Example 72] |  |
